Entries after “also recorded” stand apart in the source; their conditions may differ.
Legend:
[1] = test system: platelet activating factor (PAF); experiment: PAF Induced Paw Edema in the Mouse; format: in vivo, mouse (Charles River CD-1, female); details: for % Inhibition of Edema: 1 hour before PAF (1 ug/paw), 15 min after PAF
Method: The experimental procedure was adapted from Calhoun et al., Agents & Actions, 21:306-309 (1987). Charles River CD-1 female mice (20-25 G) were given a dose of Formula I, or phenidone, using peanut oil as a carrier. Control mice were given doses of the carrier alone. The drugs were administered orally in a 50 μl volume of peanut oil. One hour later, 1.0 μg of PAF dissolved in 50 μl of 5% ethanol-saline was injected subcutaneously into the plantar surface of the right hind paw. The volume of this injected foot to the level of the lateral malleous was measured by water displacement immediately before drug administration and again 15 minutes after PAF injection.
The effectiveness of each compound was analyzed in the following manner. The individual paw volumes were compared by a paired t test analysis in which predrug paw volumes were compared to paw volumes 15 minutes after PAF injection to determine the level of statistical significance. The percent inhibition of edema volume was obtained from the ratio of the mean predrug volume to the mean volume after PAF.

[2] = test system: 5-HETE synthesis in mouse peritoneal macrophages; experiment: Inhibition of 5-HETE Synthesis in mouse peritoneal macrophages; format: cell-based, mouse (CD-1, female); details: for 5-HETE (%) (percentage of total recovered radioactivity): vehicle 2.9 ± 0.16
Method: It has been proposed that products of lipoxygenase action such as leukotriene […] (LTB4) and 5-hydroxyeicosatetraenoic acid (5-HETE) can act synergistically with PAF to cause neutrophil degranulation which may contribute to the development of inflammation. J. T. O'Flaherty, J. Cell Biology, 122:229-239 (1985). Formula I was tested as an inhibitor of 5-HETE production in mouse peritoneal macrophages using the following procedure.
Peritoneal cells were collected from female CD-1 mice (20-25 g) following sacrifice by cervical dislocation. The cells from each group of mice were pooled, centrifuged and suspended in MEM. Aliquotes containing 4.5×10^6 cells in 3.0 ml MEM were placed in culture dishes and incubated for 18 hours at 37° C. By this procedure, a relatively homogenous monolayer of macrophages was obtained. Eicosanoid synthesis was brought about by the addition of ^14 C-arachidonic acid (2×10^5 dpm; 0.22 μM) followed by a calcium ionophore, A23187 (0.03 μM). After 15 minutes, the reaction was stopped by the addition of citric acid to pH4 and the products were extracted with ethyl acetate. Silica gel thin layer chromatography (hexane; ether; acetic acid; 50:50:1) was used to separate the 5-HETE which was identified by comparison with authentic material. Carbon-14 content was measured by liquid scintillation counting of the HETE containing zone. The significance of drug induced changes was calculated using the Student's test when compared with vehicle treated (ethanol, 30 μl) cells.

[3] = test system: gastric mucosa
Method: Robert and Szabo, In: Selye's Guide to Stress Research, (Vol. 2, A. Selye, Ed.) New York; Van Nostrand Reinhold Co., pp. 22-46 (1983); and Robert et al., Gastroenterology, 77:433-443 (1979). Experimental groups of 5-11 rats (Charles River CD) were fasted for 24 hours before the administration of either aspirin, Formula I or indomethacin by a rubber stomach tube (Rusch No. 8). The animals were killed 1 hour later by carbon dioxide asphyxiation. At that time, 4 ml of 10% aqueous buffered formaldehyde (formalin) was injected directly into the stomach of each animal. […] After 5 minutes of in situ fixation, the stomach and proximal duodenum were removed, opened along the greater curvature, pinned on a cork with mucosa upward, and immersed in 10% formaldehyde until further processing. Szabo, S. et al., J. Pharmacol. Meth., 13:59-66 (1985). The gastric lesions were then evaluated by direct visual inspection.
For comparative purposes, a semiquantitative scale of 0-3 was used to assess the extent of gastric mucosal lesions. Szabo et al., Science, 214:200-202 (1981); and Szabo et al., Gastroenterology, 85:1384-1390 (1983). According to this scale, a score of 0 indicates a normal mucosa; 1 represents the appearance of between 1 and 4 small petechiae; 2 indicates the presence of 5 or more petechiae or hemmorhagic streaks up to 4 mm in length; 3 represents the appearance of erosions longer than 5 mm or confluent hemmorrhages.

[4] = test system: platelet activating factor (PAF); experiment: PAF Induced Mortality; format: in vivo, mouse (Charles River CD-1, female)
Method: The induction of mortality by the injection of low doses of PAF into mice has been described as a method for assessing the effectiveness of agents to antagonize the anaphylactic properties of PAF by J. M. Young, P. J. Maloney, S. W. Jubb and J. S. Clarke, in Prostaglandins, 30:545-551 (1985). Charles River CD-1 female mice (25-30 g) were given intraperitoneal injections of PAF (10 μg) dissolved in 100 μl of 5% ethanol-saline. […] Test drugs were orally administered in 50 μl of peanut oil one hour prior to PAF injection. Control mice were dosed with vehicle only. Mortality was assessed by counting survivors at one hour, two hours, and twenty four hours after the PAF injection.

[5] = 20 mg/kg oral, 1 hr after PAF (10 μg i.p.)
[6] = 20 mg/kg oral, 2 hrs after PAF (10 μg i.p.)
[7] = 20 mg/kg oral, 24 hrs after PAF (10 μg i.p.)
[8] = 40 mg/kg oral, 1 hr after PAF (10 μg i.p.)
[9] = 40 mg/kg oral, 2 hrs after PAF (10 μg i.p.)
[10] = 40 mg/kg oral, 24 hrs after PAF (10 μg i.p.)
[11] = 80 mg/kg oral, 1 hr after PAF (10 μg i.p.)
[12] = 80 mg/kg oral, 2 hrs after PAF (10 μg i.p.)
[13] = 80 mg/kg oral, 24 hrs after PAF (10 μg i.p.)

`CCCCCc1cc(O)c2c(c1)OC(C)(C)C1CC=C(C(=O)O)CC21` (stereo not shown) [Formula I, 6a,7,10,10a-tetrahydro-6,6-dimethyl-9-carboxyl-3-pentyl-6H-dibenzo[b,d]pyran-1-ol] was tested, and the “% Inhibition of Edema” value ([1]; 10 mg/kg oral) was 21.8%, the “% Inhibition of Edema” value ([1]; 20 mg/kg oral) was 50.2% and the “% Inhibition of Edema” value ([1]; 40 mg/kg oral) was 46.2%. The “antagonism of inflammatory actions of PAF (in words)” value ([1]; mouse paw edema, oral) was “effective antagonist to the inflammatory actions of PAF”, the “5-HETE (%) (percentage of total recovered radioactivity)” value ([2]; 0.32 μM) was 3.08 ± 0.36% and the “5-HETE (%) (percentage of total recovered radioactivity)” value ([2]; 1.6 μM) was 3.03 ± 0.42%. For the same compound, the “5-HETE (%) (percentage of total recovered radioactivity)” value ([2]; 3.2 μM) was 1.58 ± 0.41%, the “5-HETE (%) (percentage of total recovered radioactivity)” value ([2]; 4 μM) was 1.68 ± 0.15% and the “5-HETE (%) (percentage of total recovered radioactivity)” value ([2]; 8 μM) was 1.48 ± 0.87%. The “5-HETE (%) (percentage of total recovered radioactivity)” value ([2]; 16 μM) was 3.10 ± 0.10%, the inhibition at 3.2 µM ([2]; Mus musculus, Peritoneal macrophage, 3.2 μM) was 46% and the inhibition at 4 µM ([2]; Mus musculus, Peritoneal macrophage, 4 μM) was 42%. The inhibition at 8 µM ([2]; Mus musculus, Peritoneal macrophage, 8 μM) was 49%, the “reduction of 5-HETE synthesis (in words)” value ([2]; dose range of 3.2 to 8 μM) was “reduces 5-HETE synthesis to one half of the control level” and the “Incidence (rats with lesions/total tested)” value ([3]; 80 mg/kg by stomach tube, 1 hour) was 0/10. For the same compound, the “Mean Score” value ([3]; 80 mg/kg by stomach tube, 1 hour, scale 0-3 (0 = normal mucosa)) was 0.0, the “ulcer / gastric lesion formation (in words)” value ([3]; directly into the stomach, Formula I at twice its therapeutic dose in the mouse (40 mg/kg), 40 mg/kg) was “did not induce ulcer formation; also recorded: does not induce the formation of gastric lesions” and the “Survivors (%)” value [4, 5] was 25%. The Survivors/N [4, 5] was 5/20, the “Survivors (%)” value [4, 6] was 25% and the Survivors/N [4, 6] was 5/20. The “Survivors (%)” value [4, 7] was 25%, the Survivors/N [4, 7] was 5/20 and the “Survivors (%)” value [4, 8] was 80%. The Survivors/N [4, 8] was 12/15, the “Survivors (%)” value [4, 9] was 80% and the Survivors/N [4, 9] was 12/15. For the same compound, the “Survivors (%)” value [4, 10] was 80%, the Survivors/N [4, 10] was 12/15 and the survival rate ([4]; 40 mg/kg oral, all time points (1, 2, 24 hours)) was 80%. The “Survivors (%)” value [4, 11] was 70%, the Survivors/N [4, 11] was 7/10 and the “Survivors (%)” value [4, 12] was 70%. The Survivors/N [4, 12] was 7/10, the “Survivors (%)” value [4, 13] was 70% and the Survivors/N [4, 13] was 7/10. The “antagonism of anaphylactic effects of PAF (in words)” value ([4]; oral, mouse) was “potent antagonist to the anaphylactic effects of PAF”.

Source: US4973603A, “Platelet activating factor antagonist and methods of use therefor” (priority 1989, dated 1990)
